# Measurements reported in patent US20250381324A1, “CD31 MIMETIC COATING FOR ENDOVASCULAR STENT” (INSERM (Institut National de la Santé et de la Recherche …, priority 2021, published 2025).
# Square brackets hold non-standard residues; d marks the D form. Primed or numbered codes have the meaning given here. Ends that are not written are not given here. Lys(N3) = [N-]=[N+]=NCCCC[C@H](N)C(=O)O; hCys = N[C@@H](CCS)C(=O)O; PEG4′ = not defined here
# How the values were obtained:
# [1] = test system: Primary Human Aortic Endothelial Cells (HAEC); assay: Human aortic endothelial cells grown 48 h on bare or peptide-coated nitinol disks; F-actin / CD31 staining and image analysis; type: cell-based; details: for CD31/Actin score: Example 2, FIG. 25, repeated experiments (SP547, SP548 only one measure); for CD31 expression (physiologic endothelial phenotype), Integrated Density: compared to other modified disks and bare controls, FIGS. 2, 4, 5
# Protocol: Nitinol disks are left untouched (bare metal) or coated with a domain 1, domain 2 or domain 1 and 2 CD31 analog peptide. The tested peptide is grafted to the nitinol disk following a polydopamine, DBCO-PEG4-amine and azide CD31 derivative peptide using a sequential dip-coating layering procedure. After this step, all the disks are incubated with Human aortic endothelial cells for 48 h. Disks are then rinsed and the cells are fixed in a formalin solution before staining. The staining is fulfilled using phalloidin coupled to AlexaFluor®488 dye (green fluorescence for Actin), DAPI is used for DNA staining and a domain 1 CD31 antibody coupled to APC is used for external Domain 1 staining. The cell adhesion and Actin/CD31 expression was evaluated by image analysis of the surface after staining.
# In particular, as per FIG. 2 the bare or coated nitinol disks were placed at the bottom of culture wells. Primary Human Aortic Endothelial Cells (HAEC) were allowed to grow on the disks for a period of 48 h. The disks were thereafter rinsed with phosphate buffered saline, fixed in formalin, and processed for fluorescence microscopy. Disk-adherent cells were immersed in a solution comprising Hoechst 33342 (1 μg/ml, to stain the nuclei), phalloidin coupled to AlexaFluor®488 dye (0.5 μM, to stain F-actin fibers) and a monoclonal antibody directed against CD31 domain 1, coupled to allophycocyanin (to detect the presence and localization of intact CD31 at the cell surface) for 1 hour at 37° C., washed and mounted face down on glass bottom imaging chambers for imaging with an inverted fluorescence microscope.
# Surface type is indicated on the Y axis, data are expressed as average±SD (N=6/surface type). Each dot corresponds to a specific surface modification. The F-actin expression relates the cellular stress of the cell in presence of the exogenous material.
# In FIG. 4 the surface type is indicated on the Y axis. Each dot corresponds to a specific surface modification. Data are expressed as “Integrated Density” average±SD (N=6/surface type). CD31 expression relates the capacity of endothelial cells to adopt a physiologic phenotype while growing on a given substrate. An important variability is observed in terms of CD31 expression by HAEC according to the surface modification of the nitinol disks.
# The “mirror” bars of FIG. 5 report the average Integrated Density of F-actin (left) and of CD31 (right) staining for each of the indicated (Y axis) type of peptide coated onto the disk surface and bare disks. Data are sorted (from the top to the bottom) according to the increase in the cellular stress (actin expression) of each coating. As shown on the figure, the degree of cellular stress (as detected by a high actin expression) and impaired endothelial phenotype (documented by a low CD31 expression) is evident on HAEC grown onto bare metal disks.
# The data shown in FIG. 6 are expressed as the ratio between CD31 and F-actin expression.
# The effect of different peptides, belonging to the different groups, were tested in batches following the same protocol as in FIG. 6. Different peptides from each group were tested in batches and the effect of individual peptides was repeatedly assessed in separate experiments. Data from all experiments were obtained by computer-assisted analysis of images of the disk side covered with endothelial cells, captured in the blue, green and red channel of an inverted fluorescence microscope. The functional score of the peptides belonging to the different groups was calculated by multiplying the number of cells (as detected by the number of blue, Dapi+ nuclei) for the integrated density of CD31 expression (red signal provided by the binding of a mouse anti-human CD31 monoclonal antibody, clone 9G11, conjugated allophycocyanin) and their product being divided for the integrated density of the F-actin polymerization (Phalloidin coupled to a green fluorochrome). […]
# [2] = test system: aneurysm-carrying artery and abdominal aorta; assay: Flow-diverter stents (CFD) implanted in rabbit aneurysm-carrying artery and abdominal aorta; SEM and histopathology (Example 3); type: in vivo, New Zealand White rabbits
# Protocol: Flow-diverter stents (CFD) are braided meshes made of nitinol, from Sinomed. They are coated by one of the following coatings: • 1. SP1072 peptide according to the invention, or • 2. Hydrophilic polymer eG NTMA (obtained from the electrografting of N-[Tris (hydroxymethyl) Methyl]Acrylamide).
# • 1) Transfer each stent in a 5 mL polypropylene round bottom tube (Bd Falcon Ref 352063). Insure the stent drops at the bottom of the tube. • 2) Add 4.5 mL of a 2 mg/mL PDA solution per tube. Homogenize each tube on a rotary wheel (approx. 20 rpm) overnight (18+/−2 h) at room temperature and protect from light. […] The stent color should change from silver to brown/black. After the incubation period the solution will become black with small PDA aggregates • 3) Transfer each stent in a new tube and rinse 3-times with demineralized water. homogenize on the rotary wheel 5 min at each rinse. • 4) Leave the last rinse and sonicate the tube for at least 30 s to discard any remaining PDA chunk. • 5) Transfer each stent in a 2 mL—Eppendorf tube containing 1.8 mL of DBCO (300 μM) per tube. Homogenize each tube on a rotary wheel (approx. 20 rpm) overnight at room temperature and protect from light. • 6) Transfer each stent in a new tube and rinse 3-times with demineralized water. Homogenize on the rotary well 5 min at each rinse. • 7) Transfer each stent in a 2 mL—Eppendorf tube containing 1.8 mL of CD31 peptide (50 μg/mL) per tube. Homogenize each tube on a rotary wheel (approx. 20 rpm) for 2 hours at room temperature and protect from light. • 8) Transfer each stent in a new tube and rinse 3-times with demineralized water. Homogenize on the rotary well 5 min at each rinse. • 9) Soak each stent in absolute Ethanol for 5 seconds before letting them dry.
# Comparative hydrophilic polymer eG NTMA-coated flow diverter stents were obtained via the following protocol: • (1) Cleaning pretreatment: The stent frames were sonicated in acetone, ethanol, and water for injection for 10 min, respectively. • (2) Electro-grafting solution preparation: N-[tris(hydroxymethyl)methyl]acrylamide, concentration 0.30 M; NaNO3, concentration 0.05 M; 4-nitrophenyl tetrafluoroborate diazonium salt, 0.005 M; the remaining amount is DMSO solvent. • (3) Electro-grafting process: the pretreated stents were used as the working electrode, and a platinum foil was used as the counter electrode, which was submerged in the electro-grafting solution, and a linear sweep voltage between −0.1 and −3.0 V and back was applied between the two electrodes with a voltage scan rate of 0.05 V/s for 10 cycles. • (4) Coating smoothing and drying: the electrografted scaffold was smoothed in acetone (2 L) with nitrogen bubbling (rate 0.5-10 L/min) for 10 min and placed in a vacuum drying oven at 40° C. for 2 h.
# A total of 8 healthy New Zealand White rabbits (including 2 spare animals), male and female, weighing about 3 kg, were included in this study. A total of 3 observation time points of 7 days, 30 days and 60 days postoperatively were set. The experiment was divided into two steps: 1) aneurysm animal modeling; 2) implantation of a dense mesh stent in the aneurysm-carrying artery and abdominal aorta for each animal. The stent implantation in the aneurysm-carrying artery was to be used to examine the safety and effectiveness of the stent in treating aneurysms, and the stent implantation in the abdominal aorta, covering a pair of lumbar arteries, was to be used to examine the safety of the tested stent.
# Step 1) (aneurysm animal modeling) was performed as follows: • (a) The rabbit is placed supine on the operating table and the neck is shaved. […] Every 20 minutes, saline drips were injected into the rabbit's cervical vessels and vagus nerve to keep them moistened. […] Continue to use antibiotics for 3-5 days after surgery. […]
# [3] = test system: aneurysm-carrying artery and abdominal aorta; assay: Flow-diverter stents (CFD) in rabbits without aspirin or clopidogrel after implantation (Example 4); type: in vivo, New Zealand White rabbits; details: day 7, n=3, no aspirin nor clopidogrel after implantation; preliminary
# Description: The same materials and protocol as in Example 3 were used, except that: • Only 3 animals were used for each condition, and • No aspirin nor clopidogrel was given to animals after the implantation.
# endothelial cells = details: immobilized peptide, in vitro; cited from earlier work
# [4] = day 7, aneurysm-carrying artery
# [5] = day 60, aneurysm-carrying artery
substance,measurement,setting,value
YKSTVIVNNKEKTTAE-PEG4-K(N3)-CONH2 (YKSTVIVNNKEKTTAE[PEG4′][Lys(N3)]-NH2) [SP1072],CD31/Actin score,[1],significantly higher than those obtained by the bare metal disks or by disks coated with PDA alone
same,"CD31 expression (physiologic endothelial phenotype), Integrated Density",[1]; HAEC 48 h on coated nitinol disks,evident positive effect in terms of CD31 expression
same,ratio between CD31 and F-actin expression,"[1]; compared to bare metal and disks coated with PDA only, FIG. 6",higher CD31/actin ratio
same,endothelialization of inner surface of flow-diverter stents (conclusion),[2]; Example 3 overall,promotes early endothelialization on the inner surface of the flow-diverter stents
same,endothelialization of the device at sites other than the aneurysm entry (conclusion),[2]; Example 3 overall,endothelialization of the device is fast and complete without apparent inflammation nor neointima
same,neo arterial wall at the entry of the aneurysm sac (conclusion),[2]; Example 3 overall,"promotes the growth of an organized, blood-impermeable neo arterial wall at the entry of the aneurysm sac"
same,neo-wall covering the aneurysmal neck (histopathology),[2]; [4],compact and rich in extracellular matrix (dark grey) and void of inflammation (no black nuclei) or thrombosis
same,organization of thrombus in the aneurysmal sac (histopathology),[2]; [4],organized
same,organization of thrombus in the aneurysmal sac (histopathology),[2]; [5],very well organized
same,reaction of arterial wall in contact with stent struts (histopathology),[2]; [5],absence of inflammation/thrombosis of the arterial wall that is already in contact with the stent struts
same,survival and thrombus after implantation,[3],still alive with no thrombus
KWPALFVR [P8RI],blood element reaction,endothelial cells,reduces the blood element reaction
Ac-YKDDVLFYNISSMKST-GGSGGSGG-K(N3)-NH2 (Ac-YKDDVLFYNISSMKSTGGSGGSGG[Lys(N3)]-NH2; SMILES CC[C@H](C)[C@H](NC(=O)[C@H](CC(N)=O)NC(=O)[C@H](Cc1ccc(O)cc1)NC(=O)[C@H](Cc1ccccc1)NC(=O)[C@H](CC(C)C)NC(=O)[C@@H](NC(=O)[C@H](CC(=O)O)NC(=O)[C@H](CC(=O)O)NC(=O)[C@H](CCCCN)NC(=O)[C@H](Cc1ccc(O)cc1)NC(C)=O)C(C)C)C(=O)N[C@@H](CO)C(=O)N[C@@H](CO)C(=O)N[C@@H](CCSC)C(=O)N[C@@H](CCCCN)C(=O)N[C@@H](CO)C(=O)N[C@H](C(=O)NCC(=O)NCC(=O)N[C@@H](CO)C(=O)NCC(=O)NCC(=O)N[C@@H](CO)C(=O)NCC(=O)NCC(=O)N[C@@H](CCCCN=[N+]=[N-])C(N)=O)[C@@H](C)O) [SP548],CD31/Actin score,[1],equivalent to those of sections coated by other peptides according to the invention
hCHQMLFYKDDVLFYNISShCK-Ttds-Ttds-Ttds-Ttds-K(N3)-CONH2 ([hCys]HQMLFYKDDVLFYNISS[hCys]K-{Ttds-Ttds-Ttds-Ttds-Lys(N3)-NH2}; cysteine pairing not given here) [SP1374],CD31/Actin score,[1],significantly higher than those obtained by the bare metal disks or by disks coated with PDA alone
same,"F-actin expression (cellular stress), Integrated Density","[1]; HAEC 48 h on coated nitinol disks, compared to bare metal, FIGS. 2, 3, 5",low cellular stress (low actin expression)
same,"CD31 expression (physiologic endothelial phenotype), Integrated Density","[1]; HAEC 48 h on coated nitinol disks, listed as 1374",evident positive effect in terms of CD31 expression
same,"CD31 expression (physiologic endothelial phenotype), Integrated Density","[1]; HAEC 48 h on coated nitinol disks, listed as SP 1374",consistent functional endothelial phenotype (high CD31 expression)
